System: patients with advanced solid tumors
Assay: phase I dose escalation: safety, DLT, MTD, RP2D (CTCAE v. 5)
Format: in vivo
Conditions: 4:3
Text: Subsequent dosing cohorts were enrolled using a standard 3 + 3 design.
If any patient in any cohort of three patients developed a DLT during cycle 1, an additional three patients were recruited to expand the cohort to up to six evaluable patients. If two or more patients in any expanded cohort developed a DLT, this dose was considered non-tolerated, and dose escalation was discontinued. The MTD was defined as the highest dose level for which no more than one of six patients experienced a DLT.
Patients were continuously evaluated for adverse events throughout the study using the Common Terminology Criteria of Adverse Events (CTCAE v. 5). The patients underwent a clinical history and physical examination, an ECOG PS, a complete blood count (CBCs), chemistry, coagulation studies, urinalysis, a serum pregnancy test (as applicable), a triplicate ECG, an ophthalmology examination, and baseline tumor assessment at screening. During cycle 1, weekly history and physical examination, CBC, chemistry, coagulation parameters, urinalysis, and triplicate ECGs were performed; in subsequent cycles, weekly labs were limited to a CBC. Repeat ophthalmology examinations were performed at cycle 3, day 1, and at the end of treatment. Repeat tumor assessment was performed every 2 cycles (6 weeks) in accordance with RECIST 1.1.

What does the source list for CC(C)[C@H](N)C(=O)SCC/C=C/[C@@H]1CC(=O)NCc2nc(cs2)C(=O)NC(C)(C)C(=O)N[C@@H](C(C)C)C(=O)O1 [OKI-179, Bocodepsin]?
TEAE: Anemia (30 mg–210 mg (n = 8), G1): 0 n (%); TEAE: Back pain (30 mg–210 mg (n = 8), G1): 1 (13) n (%); TEAE: Cough (30 mg–210 mg (n = 8), G1): 2 (25) n (%); TEAE: Decreased appetite (30 mg–210 mg (n = 8), G1): 3 (38) n (%); TEAE: Diarrhea (30 mg–210 mg (n = 8), G1): 5 (63) n (%); TEAE: Dyspnea (30 mg–210 mg (n = 8), G1): 2 (25) n (%); TEAE: ECG QT prolonged (30 mg–210 mg (n = 8), G1): 0 n (%); TEAE: Fatigue (30 mg–210 mg (n = 8), G1): 2 (25) n (%); TEAE: Headache (30 mg–210 mg (n = 8), G1): 2 (25) n (%); TEAE: Hypokalaemia (30 mg–210 mg (n = 8), G1): 1 (13) n (%); TEAE: Muscular weakness (30 mg–210 mg (n = 8), G1): 0 n (%); TEAE: Nasal congestion (30 mg–210 mg (n = 8), G1): 1 (13) n (%); TEAE: Nausea (30 mg–210 mg (n = 8), G1): 5 (63) n (%); TEAE: Platelet count decreased (30 mg–210 mg (n = 8), G1): 0 n (%); TEAE: Proteinuria (30 mg–210 mg (n = 8), G1): 0 n (%); TEAE: Pyrexia (30 mg–210 mg (n = 8), G1): 2 (25) n (%); TEAE: Vomiting (30 mg–210 mg (n = 8), G1): 4 (50) n (%); TEAE: Weight decreased (30 mg–210 mg (n = 8), G1): 1 (13) n (%); TEAE: Anemia (30 mg–210 mg (n = 8), G2): 2 (25) n (%); TEAE: Back pain (30 mg–210 mg (n = 8), G2): 0 n (%); TEAE: Cough (30 mg–210 mg (n = 8), G2): 1 (13) n (%); TEAE: Decreased appetite (30 mg–210 mg (n = 8), G2): 1 (13) n (%); TEAE: Diarrhea (30 mg–210 mg (n = 8), G2): 0 n (%); TEAE: Dyspnea (30 mg–210 mg (n = 8), G2): 0 n (%); TEAE: ECG QT prolonged (30 mg–210 mg (n = 8), G2): 0 n (%); TEAE: Fatigue (30 mg–210 mg (n = 8), G2): 1 (13) n (%); TEAE: Headache (30 mg–210 mg (n = 8), G2): 0 n (%); TEAE: Hypokalaemia (30 mg–210 mg (n = 8), G2): 0 n (%); TEAE: Muscular weakness (30 mg–210 mg (n = 8), G2): 1 (13) n (%); TEAE: Nausea (30 mg–210 mg (n = 8), G2): 0 n (%); TEAE: Platelet count decreased (30 mg–210 mg (n = 8), G2): 0 n (%); TEAE: Proteinuria (30 mg–210 mg (n = 8), G2): 0 n (%); TEAE: Pyrexia (30 mg–210 mg (n = 8), G2): 0 n (%); TEAE: Vomiting (30 mg–210 mg (n = 8), G2): 0 n (%); TEAE: Weight decreased (30 mg–210 mg (n = 8), G2): 1 (13) n (%); TEAE: Anemia (30 mg–210 mg (n = 8), G3): 2 (25) n (%); TEAE: Back pain (30 mg–210 mg (n = 8), G3): 0 n (%); TEAE: Cough (30 mg–210 mg (n = 8), G3): 0 n (%); TEAE: Decreased appetite (30 mg–210 mg (n = 8), G3): 0 n (%); TEAE: Diarrhea (30 mg–210 mg (n = 8), G3): 0 n (%); TEAE: Dyspnea (30 mg–210 mg (n = 8), G3): 0 n (%); TEAE: ECG QT prolonged (30 mg–210 mg (n = 8), G3): 1 (13) n (%); TEAE: Fatigue (30 mg–210 mg (n = 8), G3): 1 (13) n (%); TEAE: Headache (30 mg–210 mg (n = 8), G3): 0 n (%); TEAE: Hypokalaemia (30 mg–210 mg (n = 8), G3): 0 n (%); TEAE: Muscular weakness (30 mg–210 mg (n = 8), G3): 0 n (%); TEAE: Nausea (30 mg–210 mg (n = 8), G3): 0 n (%); TEAE: Platelet count decreased (30 mg–210 mg (n = 8), G3): 0 n (%); TEAE: Proteinuria (30 mg–210 mg (n = 8), G3): 0 n (%); TEAE: Pyrexia (30 mg–210 mg (n = 8), G3): 0 n (%); TEAE: Vomiting (30 mg–210 mg (n = 8), G3): 0 n (%); TEAE: Weight decreased (30 mg–210 mg (n = 8), G3): 0 n (%); TEAE: Anemia (270 mg (n = 3), G1): 0 n (%); TEAE: Back pain (270 mg (n = 3), G1): 0 n (%); TEAE: Cough (270 mg (n = 3), G1): 0 n (%); TEAE: Decreased appetite (270 mg (n = 3), G1): 0 n (%); TEAE: Diarrhea (270 mg (n = 3), G1): 0 n (%); TEAE: Dyspnea (270 mg (n = 3), G1): 0 n (%); TEAE: ECG QT prolonged (270 mg (n = 3), G1): 0 n (%); TEAE: Fatigue (270 mg (n = 3), G1): 1 (33) n (%); TEAE: Headache (270 mg (n = 3), G1): 0 n (%); TEAE: Hypokalaemia (270 mg (n = 3), G1): 0 n (%); TEAE: Muscular weakness (270 mg (n = 3), G1): 1 (33) n (%); TEAE: Nausea (270 mg (n = 3), G1): 1 (33) n (%); TEAE: Platelet count decreased (270 mg (n = 3), G1): 1 (33) n (%); TEAE: Proteinuria (270 mg (n = 3), G1): 0 n (%); TEAE: Pyrexia (270 mg (n = 3), G1): 0 n (%); TEAE: Vomiting (270 mg (n = 3), G1): 0 n (%); TEAE: Weight decreased (270 mg (n = 3), G1): 0 n (%); TEAE: Anemia (270 mg (n = 3), G2): 0 n (%); TEAE: Back pain (270 mg (n = 3), G2): 0 n (%); TEAE: Cough (270 mg (n = 3), G2): 0 n (%); TEAE: Decreased appetite (270 mg (n = 3), G2): 0 n (%); TEAE: Diarrhea (270 mg (n = 3), G2): 0 n (%)
